The text below walks through data of patent US8987250B2 (Gilead Sciences, Inc., priority 2012, dated 2015).

One series deals with human liver microsomes. The experiment in a line: Test B: Metabolic Stability Assay with Human Liver Microsomes. The format is in vitro ADME. The following applies: 1 uM compound, 1 mg/mL human liver microsomal proteins, 37° C., 0-60 minutes; half-life class. An excerpt:
Test B: Metabolic Stability Assay with Human Liver Microsomes
Effective viral suppression in the HIV infected patient requires that the antiviral drug persists in the patient's body at concentrations exceeding the minimum concentration required to inhibit viral proliferation. One of the factors controlling the drug levels after dosing is metabolic conversion. The liver is one site of drug metabolism. Approximately 60% of marketed drugs are cleared by hepatic metabolism (McGinnity D F et al. (2004) Drug Metab Dispos 32; 1247-1253). Liver microsomes are subcellular fractions which contain membrane bound drug metabolising enzymes. Human liver microsomes provide a convenient and concentrated source of the key liver metabolic enzymes (e.g., cytochromes P450, UDP-glucuronosyltransferases, and many others) and can be used to predict the metabolic stability of drug candidates (e.g., agents).
Cluster tubes containing 500 uL of 1 uM compound with 1 mg/mL human liver microsomal proteins (BD Biosciences, BD452117)/50 mM K-phosphate buffer pH7.4/NADPH regenerating system/and UDP-glucuronosyltransferase cofactors, were incubated on the Precision-2000 workstation at 37° C. for 0, 10, 25, 60 minutes. The reactions were quenched with 100 uL of 0.2% formic acid in 90% ACN; containing 50 nM of an internal standard. The samples were analyzed on LC/MS/MS instrument (Q-Trap). Metabolic stabilities in microsomal fractions and hepatocytes were determined by measuring the rate of disappearance of the compound. Data (% of parent remaining) were plotted on a semi logarithmic scale and fitted using an exponential fit.
On the technique in general: Microsomes from liver hold many membrane-bound enzymes, among them those of drug oxidation.

For a further series, the system named is HIV-IIIb. Description: Test A: Antiviral Assay in MT4 Cells. In kind it is cell-based. The following applies: MT-4 cells infected with HIV-IIIb, 5 days of incubation, CellTiter-Glo, read-out: EC50. Summed up: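 Read-out: CellTiter-Glo chemiluminescence after 5-day incubation at 37 °C. Compounds tested as 3-fold serial dilutions (10 concentrations, quadruplicate) in RPMI 1640 with 10% FBS, on MT-4 cells pre-infected at 37 °C with HIV-IIIb at 0.004 m.o.i.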

The mark [1] stands for this setting: Human immunodeficiency virus 1, IIIB, MT4, 120 h, Table 1.
Where [2] appears, read: Human immunodeficiency virus 1, IIIB, MT4, 120 h, Table 2.

Like-named read-outs stand apart in the source and are kept apart here.

By EC50 is commonly meant the midpoint of the concentration-response curve. As to `Cc1cc2nc(-c3cccc(-c4ccc5c(cnn5C)c4)c3)sc2c(-c2ccc3c4c(ccnc24)CCO3)c1[C@H](OC(C)(C)C)C(=O)O` (atropisomer, axis not shown) [Compound 163], the “Human Microsomal stability” value in the series on human liver microsomes is given as “C (a human microsomal stability half-life of less than 150 minutes)”. Further, the EC50 in the series on HIV-IIIb (Table 1) turned out to be 18 nM.
On to `COc1cncc(-c2cccc(-c3nc4cc(C)c([C@H](OC(C)(C)C)C(=O)O)c(-c5ccc(Cl)cc5)c4s3)c2)c1` [Compound 104, (S)-2-tert-butoxy-2-(7-(4-chlorophenyl)-2-(3-(5-methoxypyridin-3-yl)phenyl)-5-methylbenzo[d]thiazol-6-yl)acetic acid], for which the “Human Microsomal stability” value in the series with human liver microsomes was “C (a human microsomal stability half-life of less than 150 minutes)”. Further, the 50% effective concentration (EC50) in the series on HIV-IIIb (setting [1]) came to 42 nM.
On to `Cc1cc2nc(-c3cccc(-c4ccnc(Cl)c4)c3)sc2c(-c2ccc(Cl)cc2)c1[C@H](OC(C)(C)C)C(=O)O` [Compound 107, (S)-2-tert-butoxy-2-(7-(4-chlorophenyl)-2-(3-(2-chloropyridin-4-yl)phenyl)-5-methylbenzo[d]thiazol-6-yl)acetic acid], for which, in the series with human liver microsomes, the “Human Microsomal stability” value is listed as “C (a human microsomal stability half-life of less than 150 minutes)”. For the same compound, the EC50 with HIV-IIIb (setting [1]) was 46 nM.
On the same counts, the results for `Cc1cc2nc(-c3cccc(-c4ccc5c(cnn5C)c4)c3)sc2c(-c2ccc(Cl)cc2)c1[C@H](OC(C)(C)C)C(=O)O` [Compound 109, (S)-2-tert-butoxy-2-(7-(4-chlorophenyl)-5-methyl-2-(3-(1-methyl-1H-indazol-5-yl)phenyl)benzo[d]thiazol-6-yl)acetic acid] are “B (a human microsomal stability half-life of less than 300 minutes but greater than or equal to 150 minutes)” and 82 nM.
The corresponding values for `Cc1cc2nc(-c3ccnc(-c4ccc5c(cnn5C)c4)c3)sc2c(-c2ccc(Cl)cc2)c1[C@H](OC(C)(C)C)C(=O)O` [Compound 113a, (S)-2-tert-butoxy-2-(7-(4-chlorophenyl)-5-methyl-2-(2-(1-methyl-1H-indazol-5-yl)pyridin-4-yl)benzo[d]thiazol-6-yl)acetic acid] are “A (a human microsomal stability half-life of greater than or equal to 300 minutes)” and 16 nM.
On the same counts, the results for `Cc1cc2nc(-c3cccc(-c4cnn(C(C)(C)C)c4)c3)sc2c(-c2ccc(Cl)cc2)c1[C@H](OC(C)(C)C)C(=O)O` [Compound 141] are “B (a human microsomal stability half-life of less than 300 minutes but greater than or equal to 150 minutes)” and 77 nM.
In the case of `COc1cc(-c2cccc(-c3nc4cc(C)c([C@H](OC(C)(C)C)C(=O)O)c(-c5ccc(Cl)cc5)c4s3)c2)ccn1` [Compound 152], the “Human Microsomal stability” value in the series on human liver microsomes is “C (a human microsomal stability half-life of less than 150 minutes)”. Further, the EC50 in the series with HIV-IIIb (setting [1]) came out at 46 nM.
The corresponding values for `Cc1cc2nc(-c3cccc(-c4cnn(C)c4)c3)sc2c(-c2ccc(Cl)cc2)c1[C@H](OC(C)(C)C)C(=O)O` [Compound 158] are “C (a human microsomal stability half-life of less than 150 minutes)” and 17 nM.
In the case of `Cc1cc2nc(-c3ccnc(-n4ccc5cnccc5c4=O)c3)sc2c(-c2ccc(Cl)cc2)c1[C@H](OC(C)(C)C)C(=O)O` [Compound 186, (S)-2-tert-butoxy-2-(7-(4-chlorophenyl)-5-methyl-2-(2-(1-oxo-2,6-naphthyridin-2(1H)-yl)pyridin-4-yl)benzo[d]thiazol-6-yl)acetic acid], the “Human Microsomal stability” value in the series with human liver microsomes is listed as “C (a human microsomal stability half-life of less than 150 minutes)”. Besides, the EC50 in the series with HIV-IIIb (setting [2]) was determined as 4 nM.
The corresponding values for `Cc1cc2nc(-c3ccnc(N4CCN(C(C)C)CC4)n3)sc2c(-c2ccc(Cl)cc2)c1[C@H](OC(C)(C)C)C(=O)O` [Compound 202, (S)-2-tert-butoxy-2-(7-(4-chlorophenyl)-2-(2-(4-isopropylpiperazin-1-yl)pyrimidin-4-yl)-5-methylbenzo[d]thiazol-6-yl)acetic acid] are “A (a human microsomal stability half-life of greater than or equal to 300 minutes)” and 2 nM.
The corresponding values for `Cc1cc2nc(-c3ccc4c(N(C)C)nn(C)c4c3)sc2c(-c2ccc(Cl)cc2)c1[C@H](OC(C)(C)C)C(=O)O` [Compound 206, (S)-2-tert-butoxy-2-(7-(4-chlorophenyl)-2-(3-(dimethylamino)-1-methyl-1H-indazol-6-yl)-5-methylbenzo[d]thiazol-6-yl)acetic acid] are “C (a human microsomal stability half-life of less than 150 minutes)” and 24 nM.
Consider `Cc1cc2nc(-c3ccc4c(c3)c(-c3cccnc3)nn4C)sc2c(-c2ccc(Cl)cc2)c1[C@H](OC(C)(C)C)C(=O)O` [Compound 212, (S)-2-tert-butoxy-2-(7-(4-chlorophenyl)-5-methyl-2-(1-methyl-3-(pyridin-3-yl)-1H-indazol-5-yl)benzo[d]thiazol-6-yl)acetic acid], for which the “Human Microsomal stability” value with human liver microsomes was “A (a human microsomal stability half-life of greater than or equal to 300 minutes)”. In addition, the EC50 in the series on HIV-IIIb (setting [2]) is 6 nM; with HIV-IIIb (Table 1), 726 nM.
With `Cc1cc2nc(-c3ccc4c(c3)c(N3CCN(C)CC3)nn4C)sc2c(-c2ccc(Cl)cc2)c1[C@H](OC(C)(C)C)C(=O)O` [Compound 257, (S)-2-tert-butoxy-2-(7-(4-chlorophenyl)-5-methyl-2-(1-methyl-3-(4-methylpiperazin-1-yl)-1H-indazol-5-yl)benzo[d]thiazol-6-yl)acetic acid], the “Human Microsomal stability” value in the series on human liver microsomes is recorded as “A (a human microsomal stability half-life of greater than or equal to 300 minutes)”. Besides, the EC50 in the series with HIV-IIIb (setting [2]) was 5 nM.
The corresponding values for `Cc1cc2nc(N3CCN(C)C(c4ccc5c(cnn5C)c4)C3)sc2c(-c2ccc(Cl)cc2)c1[C@H](OC(C)(C)C)C(=O)O` (stereo partly drawn) [Compound 278, (2S)-2-tert-butoxy-2-(7-(4-chlorophenyl)-5-methyl-2-(4-methyl-3-(1-methyl-1H-indazol-5-yl)piperazin-1-yl)benzo[d]thiazol-6-yl)acetic acid] are “B (a human microsomal stability half-life of less than 300 minutes but greater than or equal to 150 minutes)” and 4 nM.
Consider `Cc1cc2nc(-c3ccc4c(c3)ncn4Cc3ccccc3)sc2c(-c2ccc(Cl)cc2)c1[C@H](OC(C)(C)C)C(=O)O` [Compound 285, (S)-2-(2-(1-benzyl-1H-benzo[d]imidazol-5-yl)-7-(4-chlorophenyl)-5-methylbenzo[d]thiazol-6-yl)-2-tert-butoxyacetic acid], for which the “Human Microsomal stability” value in the series with human liver microsomes was “A (a human microsomal stability half-life of greater than or equal to 300 minutes)”.
Regarding `Cc1cc2nc(-c3ccnc(N4CC(N(C)C)C4)n3)sc2c(-c2ccc(Cl)cc2)c1[C@H](OC(C)(C)C)C(=O)O` [Compound 333, (S)-2-tert-butoxy-2-(7-(4-chlorophenyl)-2-(2-(3-(dimethylamino)azetidin-1-yl)pyrimidin-4-yl)-5-methylbenzo[d]thiazol-6-yl)acetic acid], the “Human Microsomal stability” value in the series with human liver microsomes is recorded as “A (a human microsomal stability half-life of greater than or equal to 300 minutes)”. The concentration for a half-maximal effect (EC50) in the series on HIV-IIIb (setting [2]) came out at 3 nM.
As for `Cc1cc2nc(-c3ccnc(-c4cnc5[nH]cc(C)c5c4)c3)sc2c(-c2ccc(Cl)cc2)c1[C@H](OC(C)(C)C)C(=O)O` [Compound 498, (S)-2-tert-butoxy-2-(7-(4-chlorophenyl)-5-methyl-2-(2-(3-methyl-1H-pyrrolo[2,3-b]pyridin-5-yl)pyridin-4-yl)benzo[d]thiazol-6-yl)acetic acid], the concentration for a half-maximal effect (EC50) with HIV-IIIb (setting [2]) was found to be 34 nM.
The same measure, in the same setting: in the case of `CC(=O)N(C)c1ccc(-c2cc(-c3nc4cc(C)c([C@H](OC(C)(C)C)C(=O)O)c(-c5ccc(Cl)cc5)c4s3)ccn2)cc1` [Compound 499, (S)-2-(tert-butoxy)-2-(7-(4-chlorophenyl)-5-methyl-2-(2-(4-(N-methylacetamido)phenyl)pyridin-4-yl)benzo[d]thiazol-6-yl)acetic acid] it was 12 nM.
For the compound “(S)-2-tert-butoxy-2-(7-(4-chlorophenyl)-2-(3-(4,4-dimethylpiperazin-1-ium-1-yl)-1-methyl-1H-indazol-5-yl)-5-methylbenzo[d]thiazol-6-yl)acetate [Compound 494]”, the EC50 in the series with HIV-IIIb (Table 2) was 2880 nM.
